Reference: ChEMBL document CHEMBL5260836, “Combating Autoimmune Diseases With Retinoic Acid Receptor-Related Orphan Receptor-γ (RORγ or RORc) Inhibitors: Hits and Misses” (J Med Chem, 2018)
Converted amounts (≈) assume the structure as drawn.

What was measured:
[1] = Oral bioavailability in rat; format: ADME, organism-based; details: in vivo
[2] = Solubility of the compound; format: physicochemical
[3] = Unbound fraction in human plasma; format: ADME, cell-free
[4] = Oral bioavailability in dog; format: ADME, organism-based, Canis lupus familiaris; details: in vivo
[5] = Inhibition of IL-17A production in human PBMC derived from rheumatoid arthritis; format: functional, cell-based
Mus musculus [6] = test: Anti-arthritis activity against collagen-induced arthritis DBA/1Lacj mouse model assessed as arthritis clinical score at 60 mg/kg, po twice daily from day 21 to 35 relative to control; format: functional; details: 504 h
Mus musculus [7] = test: Anti-arthritis activity against collagen-induced arthritis DBA/1Lacj mouse model assessed as arthritis clinical score at 30 mg/kg, po twice daily from day 21 to 35 relative to control; format: functional; details: 504 h
Mus musculus [8] = test: Anti-arthritis activity against collagen-induced arthritis DBA/1Lacj mouse model assessed as arthritis clinical score at 10 mg/kg, po twice daily from day 21 to 35 relative to control; format: functional; details: 504 h
cells [9] = details: Homo sapiens, PBMC, 96 h
Description: Inhibition of IL17 production in human PBMC cells measured after 4 days by enzyme-linked immunosorbent assay

[10] = biological target: T1, Nuclear receptor ROR-gamma (Homo sapiens, UniProt P51449); test: Inhibition of human GAL4-fused RORgamma LBD transfected in HEK293T cell measured after 24 hrs by luciferase reporter assay; format: cell-based
T1 sequence (P51449 whole entry): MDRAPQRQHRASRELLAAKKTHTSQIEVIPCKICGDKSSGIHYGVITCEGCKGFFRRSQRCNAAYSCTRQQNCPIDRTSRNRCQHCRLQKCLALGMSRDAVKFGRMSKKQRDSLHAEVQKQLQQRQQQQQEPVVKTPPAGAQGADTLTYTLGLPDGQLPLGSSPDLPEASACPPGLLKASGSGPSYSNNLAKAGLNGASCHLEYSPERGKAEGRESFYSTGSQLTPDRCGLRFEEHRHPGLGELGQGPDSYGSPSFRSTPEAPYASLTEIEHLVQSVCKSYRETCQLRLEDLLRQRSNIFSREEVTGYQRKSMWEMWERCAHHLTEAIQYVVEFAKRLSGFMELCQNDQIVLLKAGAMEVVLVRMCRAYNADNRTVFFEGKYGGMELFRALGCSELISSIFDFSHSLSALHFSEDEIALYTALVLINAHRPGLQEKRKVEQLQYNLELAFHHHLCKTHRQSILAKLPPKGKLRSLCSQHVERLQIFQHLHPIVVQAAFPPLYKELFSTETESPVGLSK

[11] = biological target: T1, Nuclear receptor ROR-gamma; test: Inverse agonist activity at human GAL4-RORgamma […] expressed in HEK293 cells measured after 24 hrs by ligand binding assay; format: cell-based
Homo sapiens [12] = species on record: Homo sapiens; test: Ex-vivo reduction in proinflammatory cytokine levels in psoriasis patient assessed as reduction in IL-17A level in skin tissue at 10 uM measured after 12 to 14 hrs by sRICA assay; format: functional; details: Skin of body, time 12-14 hrs
cells [13] = details: Homo sapiens, PBMC
Description: Inhibition of IL-17 production in human PBMC

Homo sapiens [14] = species on record: Homo sapiens; test: Ex-vivo reduction in proinflammatory cytokine levels in psoriasis patient assessed as reduction in IL-22 level in skin tissue at 10 uM measured after 12 to 14 hrs by sRICA assay; format: functional; details: Skin of body, time 12-14 hrs
Homo sapiens [15] = species on record: Homo sapiens; test: Ex-vivo reduction in proinflammatory cytokine levels in psoriasis patient assessed as reduction in IL-17F level in skin tissue at 10 uM measured after 12 to 14 hrs by sRICA assay; format: functional; details: Skin of body, time 12-14 hrs
[16] = Inhibition of SRC1 coactivator recruitment in human PBMC; format: functional, cell-based
Homo sapiens [17] = species on record: Homo sapiens; test: Ex-vivo reduction in proinflammatory cytokine levels in psoriasis patient assessed as reduction in IL-19 level in skin tissue at 10 uM measured after 12 to 14 hrs by sRICA assay; format: functional; details: Skin of body, time 12-14 hrs
Mus musculus [18] = test: Anti-inflammatory activity against psoriasis mouse model assessed as reduction in epidermal thickness treated topically; format: functional
cells [19] = details: Homo sapiens, PBMC, 144 h
Description: Decrease in Tc17 cell differentiation in CD8+ T cells from human PBMC cells cultured under the Tc17-skewing conditions measured after 6 days

[20] = Half life in mouse; format: ADME, organism-based; details: in vivo
Homo sapiens [21] = species on record: Homo sapiens; test: tissue or blood; details: 18 h
Description: Reduction of IL17 level in human whole blood measured after 18 hrs by ELISA

Homo sapiens [22] = species on record: Homo sapiens; test: tissue or blood; details: 18 h; remark: listed apart in the source
Description: Reduction of IL22 level in human whole blood measured after 18 hrs by ELISA

[23] = Oral bioavailability in mouse; format: ADME, organism-based; details: in vivo
Homo sapiens [24] = species on record: Homo sapiens; test: tissue or blood; details: 18 h; remark: listed apart in the source
Description: Reduction of IL17F level in human whole blood measured after 18 hrs by ELISA

[25] = Suppression of Th17 polarization in human CD4+ T cells cultured under Th17-skewing conditions measured after 4 days
[26] = biological target: T1, Nuclear receptor ROR-gamma; test: Inhibition of GAL4-RORgammat LBD (unknown origin); format: cell-based, HEK293
[27] = biological target: T1, Nuclear receptor ROR-gamma; test: Inhibition of transactivation of Gal4-tagged RORgamma (unknown origin) transfected in human HG5LN cells incubated for 18 hrs by luciferase reporter gene assay; format: cell-based
cells [28] = details: Homo sapiens, PBMC; remark: listed apart in the source
Description: Inhibition of IL-17A secretion in human PBMC cells

Homo sapiens [29] = species on record: Homo sapiens; test: tissue or blood
Description: Inhibition of IL-17A secretion in healthy human whole blood

Mus musculus [30] = species on record: Mus musculus; test: animal or person; details: po, read-out: INH
Description: Anti-inflammatory activity against mouse EAE model assessed as reduction in EAE score at 100 mg/kg, po relative to control

Homo sapiens [31] = species on record: Homo sapiens; test: tissue or blood; remark: listed apart in the source
Description: Inhibition of IL-17A secretion in psoriatic human whole blood

[32] = Half life in rat; format: ADME; details: in vivo
[33] = Half life in dog; format: ADME, Canis lupus familiaris; details: in vivo
[34] = Inhibition of human Th17 cell differentiation; format: functional, cell-based
[35] = biological target: T1, Nuclear receptor ROR-gamma; test: Inhibition of human RORgammat expressed in COS7 cells by luciferase assay; format: cell-based
[36] = biological target: T1, Nuclear receptor ROR-gamma; test: Inverse agonist activity at GAL4-RORgammat LBD (unknown origin) expressed in HEK293 cells measured after 18 to 24 hrs by nuclear receptor assay; format: cell-based
[37] = biological target: T1, Nuclear receptor ROR-gamma; test: Inhibition of biotinylated human RORgammat by FRET assay
[38] = biological target: T2, Nuclear receptor ROR-gamma (Homo sapiens) (UniProt P51449); test: Inverse agonist activity at GAL4-RORgammat LBD (unknown origin) expressed in HEK293 cells at 1 uM measured after 24 hrs by nuclear receptor assay relative to control; format: cell-based
T2 sequence (whole entry): T1 sequence (P51449 whole entry)

hERG (KCNH2) = hERG (KCNH2) (Homo sapiens, UniProt Q12809); test: Inhibition of human ERG at 3 uM relative to control; format: toxicity
Sequence of hERG (KCNH2) (Q12809 whole entry): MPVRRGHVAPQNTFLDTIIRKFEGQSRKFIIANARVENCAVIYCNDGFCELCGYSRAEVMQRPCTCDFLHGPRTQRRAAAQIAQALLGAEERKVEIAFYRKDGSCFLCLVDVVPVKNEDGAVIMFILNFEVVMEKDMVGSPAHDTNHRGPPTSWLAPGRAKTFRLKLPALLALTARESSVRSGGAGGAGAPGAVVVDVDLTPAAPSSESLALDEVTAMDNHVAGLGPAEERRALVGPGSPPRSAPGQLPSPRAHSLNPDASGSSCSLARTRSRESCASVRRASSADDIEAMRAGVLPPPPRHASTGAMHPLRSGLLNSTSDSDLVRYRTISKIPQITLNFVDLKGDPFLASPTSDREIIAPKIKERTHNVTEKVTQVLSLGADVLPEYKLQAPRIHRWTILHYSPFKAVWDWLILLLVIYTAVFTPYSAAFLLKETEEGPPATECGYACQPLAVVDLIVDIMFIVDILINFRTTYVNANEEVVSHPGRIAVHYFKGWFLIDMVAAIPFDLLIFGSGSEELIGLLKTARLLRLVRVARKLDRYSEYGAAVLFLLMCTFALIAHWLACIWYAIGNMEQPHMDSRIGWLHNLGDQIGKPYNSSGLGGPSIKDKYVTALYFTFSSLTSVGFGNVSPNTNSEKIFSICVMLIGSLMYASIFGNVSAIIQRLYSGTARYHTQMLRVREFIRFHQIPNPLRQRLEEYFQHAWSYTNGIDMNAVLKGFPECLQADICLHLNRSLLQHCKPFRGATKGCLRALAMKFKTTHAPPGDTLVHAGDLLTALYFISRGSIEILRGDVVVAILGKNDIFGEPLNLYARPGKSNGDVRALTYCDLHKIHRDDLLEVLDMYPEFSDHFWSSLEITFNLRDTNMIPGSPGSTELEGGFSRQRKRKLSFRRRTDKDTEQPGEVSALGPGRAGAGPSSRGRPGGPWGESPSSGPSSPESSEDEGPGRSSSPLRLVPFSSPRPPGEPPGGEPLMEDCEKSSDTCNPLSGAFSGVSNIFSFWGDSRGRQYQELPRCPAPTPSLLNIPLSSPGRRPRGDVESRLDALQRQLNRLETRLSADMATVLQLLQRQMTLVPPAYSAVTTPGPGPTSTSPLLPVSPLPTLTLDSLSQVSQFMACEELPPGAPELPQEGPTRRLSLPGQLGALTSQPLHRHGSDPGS

cells [39] = details: Homo sapiens, Th17
Description: Inhibition of IL-17 production in human Th17 cells

## CC(=O)N1Cc2cc(S(C)(=O)=O)ccc2[C@@H]1C(=O)Nc1ccc(C(O)(C(F)(F)F)C(F)(F)F)cc1
[1]
  bioavailability: 34%
[2]
  solubility: 380 µM (≈ 199 µg/mL)
[3]
  fraction unbound: 0.16
[4]
  bioavailability: 96%

## COc1nc2ccc([C@](O)(c3ccc(C)nc3C)c3cnnn3C)cc2c(Cl)c1Cc1ccc(C(F)(F)F)cc1
[5]
  IC50: 5 nM
Mus musculus [6]
  inhibition in vivo at 60 mg/kg: 78%
Mus musculus [7]
  inhibition in vivo at 30 mg/kg: 46%
Mus musculus [8]
  inhibition in vivo at 10 mg/kg: 32%

## O=C(O)c1ccc(-c2nn(C(=O)c3c(Cl)cccc3C(F)(F)F)c3ccccc23)cc1
Cells [9]
  IC50: 39.6 nM

## CCS(=O)(=O)c1ccc(CNc2nc3c(C)nc(-c4c(C)ncnc4C4CC4)nc3n([C@@H](C)C3CC3)c2=O)nc1
[10]
  IC50: 60 nM

## O=C(O)CC1CN(Cc2ccc(-c3ccc(C(O)(C(F)(F)F)C(F)(F)F)cc3)cc2)CCN1Cc1ccncc1 (configuration not stated)
[11]
  IC50: > 10000 nM

## CCc1ccc(N(CC(C)C)S(=O)(=O)c2ccc(OCC3CCOCC3)c(CO)c2)cc1 [GSK2981278]
Homo sapiens [12]
  inhibition in vivo at 10 µM: > 50%
Cells [13]
  IC50: 63 nM
Homo sapiens [14]
  inhibition in vivo at 10 µM: > 50%
Homo sapiens [15]
  inhibition in vivo at 10 µM: > 50%
[16]
  IC50: 20 nM
Homo sapiens [17]
  inhibition in vivo at 10 µM: > 50%
Mus musculus [18]
  inhibition (INH): 23%

## COc1ccc2c(n1)CCN(C(=O)[C@H]1C[C@@H](CC(=O)O)C1)[C@H]2C(=O)Nc1cc(F)c2c(c1)CCC2(C)C
Cells [19]
  IC50: 9.5 nM
Cells [13]
  IC50: 102 nM
[20]
  half-life: > 4 h
Homo sapiens [21]
  IC50: 120 nM
Homo sapiens [22]
  IC50: 1600 nM
[23]
  bioavailability: 96%
Homo sapiens [24]
  IC50: 430 nM
[25]
  IC50: 28 nM

## Cc1cc(C(F)(F)F)cc2c1cc(Cc1c(Cl)ccc(C(=O)N3CCN(C4COC4)CC3)c1Cl)n2C
[26]
  IC50: < 100 nM

## Cc1ccc(N(CC(C)C)S(=O)(=O)c2ccc3c(c2)[nH]c(=O)n3CC2CCOCC2)c(C)c1
[27]
  IC50: 19 nM

## Cc1cnccc1-c1nc(-c2ccccc2)c2c(n1)[C@]1(C)C=C(C#N)C(=O)[C@H](C)[C@H]1CC2
[10]
  IC50: 40 nM
[25]
  IC50: 39 nM

## CCS(=O)(=O)c1ccc(CNC(=O)c2cnc3c(c2)CN(C[C@H]2CC[C@H](C(F)(F)F)CC2)[C@H]3C(C)C)nc1
Cells [28]
  IC50: 21 nM
[1]
  bioavailability: 64%
[2]
  solubility: 17 µM (≈ 9.4 µg/mL)
Homo sapiens [29]
  IC50: 207 nM
Mus musculus [30]
  inhibition in vivo at 100 mg/kg: > 95%
Homo sapiens [31]
  IC50: 250 nM
[3]
  fraction unbound: 0.005
[32]
  half-life: 6 h
[4]
  bioavailability: 66%
[33]
  half-life: 15 h

## Cc1ncc(C(=O)Nc2cc(F)cc(CN3CCN(C(=O)C4CCCC4)[C@@H](C)C3)c2C)cn1
[34]
  IC50: 31 nM
[35]
  IC50: 97 nM

## Cc1ccc([C@H](NC(=O)Cc2ccc3oc([C@@H](O)c4c(C)noc4C)cc3c2)c2ccccc2)c(C)c1
[36]
  IC50: 17 nM
[37]
  IC50: 5 nM

## NC(=O)Cc1ccc(CNc2ncnc(N3CCOC[C@@H]3c3ccc(C(F)(F)F)cc3)c2F)cc1
[38]
  inhibition: 80%

## CC[C@H]1c2ncc(C(=O)N[C@@H](CO)c3ccc(S(=O)(=O)CC)cn3)cc2CN1C[C@H]1CC[C@H](C(F)(F)F)CC1
hERG (KCNH2)
  inhibition at 3 µM: 7.7%

## C[C@H]1CCCCN1C(=O)c1nc(C(=O)NCC(C)(C)O)sc1-c1cnc(NCC(C)(C)C)cc1C(F)(F)F
Cells [39]
  IC50: 2.8 nM
